Patent US4683292A, “Immunotherapeutic polypeptide agents which bind to lymphocyte immunoglobulin FC receptors” (Immunetech, Inc., priority 1983, dated 1987)
Each block holds one molecule with its values, some of them ahead of it. Ends that are not written are not given here. Peptide text beside a SMILES is read from it.

Tests used:
[1] = system: granulocytes, monocytes and macrophages; settings: in vitro; cited from earlier work
[2] = system: NEUTROPHIL (PMN) Fc Receptor IgG; experiment: Rosette inhibition assay, IgG-coated ox erythrocytes, fresh human PMNs; format: binding; settings: relative to intact monomeric myeloma protein at equal concentration; 15 min preincubation
Protocol: (§1) The Fc receptor blocking activity of the subject peptides was assessed using well established techniques and procedures. In particular, a rosette assay was employed which uses either monomeric, chemically or heat aggregated human IgG or IgE obtained from human myeloma sera. (Gonzalez-Molina, et al., J. Clin. Invest., 59, 616 (1977); Spiegelberg, et al. in Immunoassays: Clinical Laboratory Techniques for the 1980's (Alan R. Liss: New York, 1980), pp. 287-300). The IgG or IgE is then adsorbed to ox-erythrocytes which has been previously treated with trypsin and pyruvic aldehyde. […] Addition of inhibitor myeloma proteins or inhibitor peptides produced a reproducable reduction of rosette formation, […], phosphate buffered isotonic saline, was used alone as control and then multiplying the calculated quotient by 100.
(§2) Table 1 presents the inhibition observed by representative peptide inhibitors calculated as a percentage of the inhibition observed with intact, monomeric myeloma proteins. […]

BASOPHIL Fc Receptor IgG = experiment: Rosette inhibition assay, IgG-coated ox erythrocytes, basophils; format: binding, human; settings: relative to intact monomeric myeloma protein at equal concentration; 15 min preincubation
Protocol: as §1, §2

[3] = system: MONOCYTE/MACROPHAGE Fc Receptor IgG; experiment: Rosette inhibition assay, IgG-coated ox erythrocytes, monocytes / U937; format: binding, human; settings: relative to intact monomeric myeloma protein at equal concentration; 15 min preincubation
Protocol: as §1, §2

[4] = target: T1, IgE Fc receptor of human basophils (Homo sapiens, UniProt P12319); settings: Plummer et al. 1983; cited from earlier work
T1 construct: host or cells: human basophils
T1 sequence (P12319 26-257): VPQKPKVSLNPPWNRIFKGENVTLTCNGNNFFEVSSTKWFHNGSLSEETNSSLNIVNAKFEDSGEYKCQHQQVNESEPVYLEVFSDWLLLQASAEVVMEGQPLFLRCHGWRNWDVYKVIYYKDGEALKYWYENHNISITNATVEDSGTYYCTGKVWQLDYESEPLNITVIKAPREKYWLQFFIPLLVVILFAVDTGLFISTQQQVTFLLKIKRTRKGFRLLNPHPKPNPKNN
T1 sequence (Q01362 1-244 partner): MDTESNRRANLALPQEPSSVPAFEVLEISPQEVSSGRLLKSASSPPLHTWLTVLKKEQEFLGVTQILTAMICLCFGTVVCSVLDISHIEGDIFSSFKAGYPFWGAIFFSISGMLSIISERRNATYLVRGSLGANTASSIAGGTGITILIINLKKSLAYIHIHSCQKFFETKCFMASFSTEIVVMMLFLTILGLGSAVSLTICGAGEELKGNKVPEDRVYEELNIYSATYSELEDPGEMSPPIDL
T1 sequence (P30273 19-86 partner): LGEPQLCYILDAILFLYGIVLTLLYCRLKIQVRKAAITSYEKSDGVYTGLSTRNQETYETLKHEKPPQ

[5] = system: systemic allergic disease; settings: humans, subcutaneous injection; cited from earlier work
[6] = system: human monocyte IgG Fc receptors; settings: Ciccimarra et al. 1975; Ratcliffe and Stanworth 1982; cited from earlier work
rodent mast cells = settings: Stanworth et al. 1979; cited from earlier work
human mast cells = settings: Stanworth et al. 1979; cited from earlier work

Molecule: Gly-Gln-Pro-Arg (GQPR; printed: Gly-Gln-Pro-Arg) [Rigin, tetrapeptide analogue of Tuftsin]
- stimulation of phagocytosis [1]: phagocytosis-stimulating abilities similar to those of Tuftsin

- Rosette inhibition expressed as percent inhibition by monomeric IgG, basophil Fc receptor IgG (BASOPHIL Fc Receptor IgG): 74%
- Rosette inhibition expressed as percent inhibition by monomeric IgG, monocyte/macrophage Fc receptor IgG [3]: 19%
Molecule: CC(=O)N[C@@H](CCC(N)=O)C(=O)N1CCC[C@H]1C(=O)N[C@@H](CCC(=O)O)C(=O)N[C@@H](CC(N)=O)C(=O)O [Ac--Gln--Pro--Glu--Asn, Ac-Gln-Pro-Glu-Asn] (Ac-QPEN-OH)
- Rosette inhibition expressed as percent inhibition by monomeric IgG, neutrophil (PMN) Fc receptor IgG [2]: 95%

Molecule: Asp-Ser-Asp-Pro-Arg (DSDPR; printed: Asp-Ser-Asp-Pro-Arg) [pentapeptide derived from human IgE Cε 3 at aa 320-324]
- blocking of human IgE binding to basophil IgE Fc receptors [4]: up to 70%
- inhibition of systemic allergic disease [5]: inhibit systemic allergic disease

Molecule: QYDSTYR [heptapeptide identical to IgG aa 295-301]
- blocking of IgG binding to human monocyte IgG Fc receptors [6]: slightly block

Molecule: PRKTKGSGFFVF [portion of Cε 4 of human IgE, aa 495-506]
- degranulation of mast cells (rodent mast cells): cause degranulation
- degranulation of mast cells (human mast cells): cause degranulation
